Tested on: female subjects with normal hepatic function, mild, moderate or severe hepatic impairment
Assay: Safety and tolerability (TEAEs, clinical laboratory, vital signs, physical examination) after a single oral dose of 20 mg E4 monohydrate in the hepatic impairment study
Assay type: in vivo, human
Conditions: for TEAE by severity: Vascular disorders, severity Mild / TEAE: Back pain / TEAE: Diarrhea / TEAE: Gastrointestinal disorders / TEAE: General disorders and administration site conditions / TEAE: Haemarthrosis / TEAE: Headache / TEAE: Hypertension / TEAE: Musculoskeletal and connective tissue disorders / TEAE: Nervous system disorders / TEAE: Pain in extremity / TEAE: Pancreatitis / TEAE: Pyrexia / TEAE: Renal and urinary disorders / TEAE: Renal impairment / TEAE: Total Subjects with at Least One TEAE / TEAE: Vascular disorders / TEAE by severity: Back pain, severity Mild / TEAE by severity: Back pain, severity Moderate / TEAE by severity: Diarrhea, severity Mild / TEAE by severity: Diarrhea, severity Moderate / TEAE by severity: Gastrointestinal disorders, severity Mild / TEAE by severity: Gastrointestinal disorders, severity Moderate / TEAE by severity: General disorders and administration site conditions, severity Mild / TEAE by severity: Haemarthrosis, severity Mild / TEAE by severity: Headache, severity Mild / TEAE by severity: Headache, severity Moderate / TEAE by severity: Hypertension, severity Mild / TEAE by severity: Musculoskeletal and connective tissue disorders, severity Mild / TEAE by severity: Musculoskeletal and connective tissue disorders, severity Moderate / TEAE by severity: Nervous system disorders, severity Mild / TEAE by severity: Nervous system disorders, severity Moderate / TEAE by severity: Pain in extremity, severity Mild / TEAE by severity: Pancreatitis, severity Moderate / TEAE by severity: Pyrexia, severity Mild / TEAE by severity: Renal and urinary disorders, severity Mild / TEAE by severity: Renal impairment, severity Mild: single oral 20 mg
Procedure: This was a Phase 1, multi-centre, open-label, PK, and safety study of a single oral dose of 20 mg E4 monohydrate in female subjects with normal hepatic function (Group 1), mild hepatic impairment (Group 2), moderate hepatic impairment (Group 3), and severe hepatic impairment (Group 4), as defined using the Child-Pugh classification at Screening.
Safety and tolerability assessments consisted of treatment-emergent AEs (TEAEs), clinical laboratory, vital signs, physical examination, and gynecological examination. Assessments were performed in accordance with Table 2 and Table 3 in Section 2.5.1.
AEs/TEAEs were recorded after signing of the ICF until completion of the follow up visit. Any clinically significant observations in results of clinical laboratory, vital signs, or physical examinations were recorded as AEs.
A TEAE is defined as any event not present prior to administration of the study drug or any event already present that worsens in either severity or frequency following exposure to the study drug.
The below listed tests were to be performed by the local laboratories at time points indicated in the Schedule of Assessments (Table 2).
Systolic and diastolic blood pressure and pulse were recorded after the subject had been resting for at least 5 minutes in the supine position at time points indicated in the Schedule of Assessments (Table 2). These assessments were made using an automated device. Body temperature and respiratory rate were measured subsequently.
A complete physical examination consisting of a review of all body systems was performed at time points indicated in the Schedule of Assessments (Table 2). A symptom-directed physical examination could be conducted at any time per Investigator's discretion.
2.6.2.2 Evaluation of Safety and Tolerability Safety and tolerability were assessed through TEAEs, clinical laboratory, vital signs, and physical examination findings, and any other parameter that was relevant for safety assessment.
A listing of all individual AEs is provided. Summary tables of TEAEs are presented by system organ class (SOC) based on the MedDRA terminology list (preferred terms): a table containing the number of subjects experiencing AEs by hepatic function, a table containing the number of subjects experiencing SAEs by hepatic function (if applicable), a table by hepatic function and relationship, and a table by hepatic function and severity.

[1] = Normal hepatic function (N = 8)
[2] = Severe hepatic impairment (N = 8)

C[C@]12CC[C@@H]3c4ccc(O)cc4CC[C@H]3[C@@H]1[C@@H](O)[C@@H](O)[C@@H]2O [E4 monohydrate, estetrol monohydrate]
TEAE by severity: Vascular disorders, severity Mild [1]: 0 (0.0) n (%) | TEAE: Back pain [1]: 1 (12.5) n (%) | TEAE: Diarrhea [1]: 1 (12.5) n (%) | TEAE: Gastrointestinal disorders [1]: 2 (25.0) n (%) | TEAE: General disorders and administration site conditions [1]: 0 (0.0) n (%) | TEAE: Haemarthrosis [1]: 0 (0.0) n (%) | TEAE: Headache [1]: 0 (0.0) n (%) | TEAE: Hypertension [1]: 0 (0.0) n (%) | TEAE: Musculoskeletal and connective tissue disorders [1]: 1 (12.5) n (%) | TEAE: Nervous system disorders [1]: 0 (0.0) n (%) | TEAE: Pain in extremity [1]: 0 (0.0) n (%) | TEAE: Pancreatitis [1]: 1 (12.5) n (%) | TEAE: Pyrexia [1]: 0 (0.0) n (%) | TEAE: Renal and urinary disorders [1]: 0 (0.0) n (%) | TEAE: Renal impairment [1]: 0 (0.0) n (%) | TEAE: Total Subjects with at Least One TEAE [1]: 2 (25.0) n (%) | TEAE: Vascular disorders [1]: 0 (0.0) n (%) | TEAE by severity: Back pain, severity Mild [2]: 1 (12.5) n (%) | TEAE by severity: Back pain, severity Moderate [2]: 0 (0.0) n (%) | TEAE by severity: Diarrhea, severity Mild [2]: 0 (0.0) n (%) | TEAE by severity: Diarrhea, severity Moderate [2]: 0 (0.0) n (%) | TEAE by severity: Gastrointestinal disorders, severity Mild [2]: 0 (0.0) n (%) | TEAE by severity: Gastrointestinal disorders, severity Moderate [2]: 0 (0.0) n (%) | TEAE by severity: General disorders and administration site conditions, severity Mild [2]: 0 (0.0) n (%) | TEAE by severity: Haemarthrosis, severity Mild [2]: 0 (0.0) n (%) | TEAE by severity: Headache, severity Mild [2]: 0 (0.0) n (%) | TEAE by severity: Headache, severity Moderate [2]: 0 (0.0) n (%) | TEAE by severity: Hypertension, severity Mild [2]: 0 (0.0) n (%) | TEAE by severity: Musculoskeletal and connective tissue disorders, severity Mild [2]: 1 (12.5) n (%) | TEAE by severity: Musculoskeletal and connective tissue disorders, severity Moderate [2]: 0 (0.0) n (%) | TEAE by severity: Nervous system disorders, severity Mild [2]: 0 (0.0) n (%) | TEAE by severity: Nervous system disorders, severity Moderate [2]: 0 (0.0) n (%) | TEAE by severity: Pain in extremity, severity Mild [2]: 0 (0.0) n (%) | TEAE by severity: Pancreatitis, severity Moderate [2]: 0 (0.0) n (%) | TEAE by severity: Pyrexia, severity Mild [2]: 0 (0.0) n (%) | TEAE by severity: Renal and urinary disorders, severity Mild [2]: 1 (12.5) n (%) | TEAE by severity: Renal impairment, severity Mild [2]: 1 (12.5) n (%) | TEAE by severity: Vascular disorders, severity Mild [2]: 0 (0.0) n (%) | TEAE: Back pain [2]: 1 (12.5) n (%) | TEAE: Diarrhea [2]: 0 (0.0) n (%) | TEAE: Gastrointestinal disorders [2]: 0 (0.0) n (%) | TEAE: General disorders and administration site conditions [2]: 0 (0.0) n (%) | TEAE: Haemarthrosis [2]: 0 (0.0) n (%) | TEAE: Headache [2]: 0 (0.0) n (%) | TEAE: Hypertension [2]: 0 (0.0) n (%) | TEAE: Musculoskeletal and connective tissue disorders [2]: 1 (12.5) n (%) | TEAE: Nervous system disorders [2]: 0 (0.0) n (%) | TEAE: Pain in extremity [2]: 0 (0.0) n (%) | TEAE: Pancreatitis [2]: 0 (0.0) n (%) | TEAE: Pyrexia [2]: 0 (0.0) n (%) | TEAE: Renal and urinary disorders [2]: 1 (12.5) n (%) | TEAE: Renal impairment [2]: 1 (12.5) n (%) | TEAE: Total Subjects with at Least One TEAE [2]: 1 (12.5) n (%) | TEAE: Vascular disorders [2]: 0 (0.0) n (%) | TEAE by severity: Back pain, severity Mild (Total (N = 32)): 1 (3.1) n (%) | TEAE by severity: Back pain, severity Moderate (Total (N = 32)): 1 (3.1) n (%) | TEAE by severity: Diarrhea, severity Mild (Total (N = 32)): 2 (6.3) n (%) | TEAE by severity: Diarrhea, severity Moderate (Total (N = 32)): 1 (3.1) n (%) | TEAE by severity: Gastrointestinal disorders, severity Mild (Total (N = 32)): 2 (6.3) n (%) | TEAE by severity: Gastrointestinal disorders, severity Moderate (Total (N = 32)): 2 (6.3) n (%) | TEAE by severity: General disorders and administration site conditions, severity Mild (Total (N = 32)): 1 (3.1) n (%) | TEAE by severity: Haemarthrosis, severity Mild (Total (N = 32)): 1 (3.1) n (%) | TEAE by severity: Headache, severity Mild (Total (N = 32)): 1 (3.1) n (%) | TEAE by severity: Headache, severity Moderate (Total (N = 32)): 1 (3.1) n (%) | TEAE by severity: Hypertension, severity Mild (Total (N = 32)): 2 (6.3) n (%) | TEAE by severity: Musculoskeletal and connective tissue disorders, severity Mild (Total (N = 32)): 3 (9.4) n (%) | TEAE by severity: Musculoskeletal and connective tissue disorders, severity Moderate (Total (N = 32)): 1 (3.1) n (%) | TEAE by severity: Nervous system disorders, severity Mild (Total (N = 32)): 1 (3.1) n (%) | TEAE by severity: Nervous system disorders, severity Moderate (Total (N = 32)): 1 (3.1) n (%) | TEAE by severity: Pain in extremity, severity Mild (Total (N = 32)): 1 (3.1) n (%) | TEAE by severity: Pancreatitis, severity Moderate (Total (N = 32)): 1 (3.1) n (%) | TEAE by severity: Pyrexia, severity Mild (Total (N = 32)): 1 (3.1) n (%) | TEAE by severity: Renal and urinary disorders, severity Mild (Total (N = 32)): 1 (3.1) n (%) | TEAE by severity: Renal impairment, severity Mild (Total (N = 32)): 1 (3.1) n (%) | TEAE by severity: Vascular disorders, severity Mild (Total (N = 32)): 2 (6.3) n (%) | TEAE: Back pain (Total (N = 32)): 2 (6.3) n (%) | TEAE: Diarrhea (Total (N = 32)): 3 (9.4) n (%) | TEAE: Gastrointestinal disorders (Total (N = 32)): 4 (12.5) n (%) | TEAE: General disorders and administration site conditions (Total (N = 32)): 1 (3.1) n (%) | TEAE: Haemarthrosis (Total (N = 32)): 1 (3.1) n (%) | TEAE: Headache (Total (N = 32)): 2 (6.3) n (%) | TEAE: Hypertension (Total (N = 32)): 2 (6.3) n (%) | TEAE: Musculoskeletal and connective tissue disorders (Total (N = 32)): 4 (12.5) n (%) | TEAE: Nervous system disorders (Total (N = 32)): 2 (6.3) n (%) | TEAE: Pain in extremity (Total (N = 32)): 1 (3.1) n (%) | TEAE: Pancreatitis (Total (N = 32)): 1 (3.1) n (%) | TEAE: Pyrexia (Total (N = 32)): 1 (3.1) n (%) | TEAE: Renal and urinary disorders (Total (N = 32)): 1 (3.1) n (%) | TEAE: Renal impairment (Total (N = 32)): 1 (3.1) n (%) | TEAE: Total Subjects with at Least One TEAE (Total (N = 32)): 9 (28.1) n (%) | TEAE: Vascular disorders (Total (N = 32)): 2 (6.3) n (%) | number of TEAEs considered related to the study drug (diarrhea, mild intensity, 1 subject in the moderate group): 1 TEAE | subjects reporting TEAE diarrhea (normal hepatic function group): 1 subjects | overall safety and tolerability (single oral dose of 20 mg, normal hepatic function, mild, moderate or severe hepatic impairment): safe and well tolerated | deaths, SAEs, other significant AEs (whole study, monohydrate): No deaths, SAEs, or other significant AEs occurred
